Laboratory results taken from patent US20210363213A1, “GLUCAGON-GLP-1-GIP TRIPLE AGONIST COMPOUNDS” (priority 2013, published 2021).
Peptide text beside a SMILES is read from it.

These molecules were tested against T1, human GIP R (Homo sapiens, UniProt P48546) (assay: Human GIP receptor (GIP-R) activity assay, cAMP induction (AlphaScreen) in HEK293 cells). Details: not given.
T1 construct: expressed in transfected cells
T1 sequence (P48546 22-466): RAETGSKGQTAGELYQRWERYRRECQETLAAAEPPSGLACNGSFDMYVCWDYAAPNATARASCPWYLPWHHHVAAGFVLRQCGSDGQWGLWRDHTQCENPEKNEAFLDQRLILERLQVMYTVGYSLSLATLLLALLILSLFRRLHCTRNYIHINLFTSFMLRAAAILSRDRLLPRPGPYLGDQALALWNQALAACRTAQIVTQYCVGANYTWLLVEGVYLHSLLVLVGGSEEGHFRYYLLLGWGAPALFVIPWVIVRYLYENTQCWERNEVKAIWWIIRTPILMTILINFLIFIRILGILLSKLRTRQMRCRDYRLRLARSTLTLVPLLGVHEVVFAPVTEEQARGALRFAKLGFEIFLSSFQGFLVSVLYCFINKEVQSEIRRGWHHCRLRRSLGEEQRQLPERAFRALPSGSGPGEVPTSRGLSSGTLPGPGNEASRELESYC
Type: cell-based

SMILES	EC50 [nM]
CC[C@H](C)[C@H](NC(=O)[C@H](CO)NC(=O)[C@H](Cc1ccc(O)cc1)NC(=O)[C@H](CC(=O)O)NC(=O)[C@H](CO)NC(=O)[C@@H](NC(=O)[C@H](Cc1ccccc1)NC(=O)[C@@H](NC(=O)CNC(=O)[C@H](CCC(N)=O)NC(=O)C(C)(C)NC(=O)[C@@H](N)Cc1ccc(O)cc1)[C@@H](C)O)[C@@H](C)O)C(=O)N[C@@H](Cc1ccc(O)cc1)C(=O)N[C@@H](CC(C)C)C(=O)N[C@@H](CC(=O)O)C(=O)N[C@@H](CO)C(=O)N[C@@H](CCCCN)C(=O)N[C@@H](C)C(=O)N[C@@H](C)C(=O)N[C@@H](Cc1c[nH]cn1)C(=O)N[C@@H](CC(=O)O)C(=O)N[C@@H](Cc1ccccc1)C(=O)N[C@H](C(=O)N[C@@H](CC(N)=O)C(=O)N[C@@H](Cc1c[nH]c2ccccc12)C(=O)N[C@@H](CC(C)C)C(=O)N[C@@H](CC(C)C)C(=O)N[C@@H](CO)C(=O)N[C@@H](C)C(N)=O)C(C)C [Compound 11] (HELM PEPTIDE1{Y.[Aib].Q.G.T.F.T.S.D.Y.S.I.Y.L.D.S.K.A.A.H.D.F.V.N.W.L.L.S.A.[am]}$$$$V2.0)	0.25
CC(C)C[C@H](NC(=O)[C@H](CC(C)C)NC(=O)[C@H](Cc1c[nH]c2ccccc12)NC(=O)[C@H](CCC(=O)O)NC(=O)[C@@H](NC(=O)[C@H](Cc1ccccc1)NC(=O)[C@H](CC(=O)O)NC(=O)[C@H](CCCNC(=N)N)NC(=O)[C@H](C)NC(=O)[C@H](C)NC(=O)[C@H](CCCCN)NC(=O)[C@H](CO)NC(=O)[C@H](CC(=O)O)NC(=O)[C@H](CC(C)C)NC(=O)[C@H](Cc1ccc(O)cc1)NC(=O)[C@H](CCCCN)NC(=O)[C@H](CO)NC(=O)[C@H](Cc1ccc(O)cc1)NC(=O)[C@H](CC(=O)O)NC(=O)[C@H](CO)NC(=O)[C@@H](NC(=O)[C@H](Cc1ccccc1)NC(=O)[C@@H](NC(=O)CNC(=O)[C@H](CCC(N)=O)NC(=O)C(C)(C)NC(=O)[C@@H](N)Cc1ccc(O)cc1)[C@@H](C)O)[C@@H](C)O)C(C)C)C(=O)N[C@@H](CO)C(=O)N[C@@H](C)C(N)=O [Compound 6] (HELM PEPTIDE1{Y.[Aib].Q.G.T.F.T.S.D.Y.S.K.Y.L.D.S.K.A.A.R.D.F.V.E.W.L.L.S.A.[am]}$$$$V2.0)	0.32
CC[C@H](C)[C@H](NC(=O)[C@H](CO)NC(=O)[C@H](Cc1ccc(O)cc1)NC(=O)[C@H](CC(=O)O)NC(=O)[C@H](CO)NC(=O)[C@@H](NC(=O)[C@H](Cc1ccccc1)NC(=O)[C@@H](NC(=O)CNC(=O)[C@H](CCC(N)=O)NC(=O)C(C)(C)NC(=O)[C@@H](N)Cc1ccc(O)cc1)[C@@H](C)O)[C@@H](C)O)C(=O)N[C@@H](Cc1ccc(O)cc1)C(=O)N[C@@H](CC(C)C)C(=O)N[C@@H](CC(=O)O)C(=O)N[C@@H](CO)C(=O)N[C@@H](CCCCN)C(=O)N[C@@H](C)C(=O)N[C@@H](C)C(=O)N[C@@H](CCCCN)C(=O)N[C@@H](CC(=O)O)C(=O)N[C@@H](Cc1ccccc1)C(=O)N[C@H](C(=O)N[C@@H](CCC(=O)O)C(=O)N[C@@H](Cc1c[nH]c2ccccc12)C(=O)N[C@@H](CC(C)C)C(=O)N[C@@H](CC(C)C)C(=O)N[C@@H](CO)C(=O)N[C@@H](C)C(N)=O)C(C)C [Compound 10] (HELM PEPTIDE1{Y.[Aib].Q.G.T.F.T.S.D.Y.S.I.Y.L.D.S.K.A.A.K.D.F.V.E.W.L.L.S.A.[am]}$$$$V2.0)	0.2

Same assay, conditions: Table 2b (most comprehensive data); average EC50; cAMP in HEK293 cells expressing human GIP R; read-out: GIP R (EC50 in nM)

SMILES	EC50 [nM]
CCCCCCCCCCCCCCCC(=O)N[C@@H](CCC(=O)NCCCC[C@H](NC(=O)[C@H](CO)NC(=O)[C@H](CC(=O)O)NC(=O)[C@H](CC(C)C)NC(=O)[C@H](Cc1ccc(O)cc1)NC(=O)[C@@H](NC(=O)[C@H](CO)NC(=O)[C@H](Cc1ccc(O)cc1)NC(=O)[C@H](CC(=O)O)NC(=O)[C@H](CO)NC(=O)[C@@H](NC(=O)[C@H](Cc1ccccc1)NC(=O)[C@@H](NC(=O)CNC(=O)[C@H](CCC(N)=O)NC(=O)C(C)(C)NC(=O)[C@@H](N)Cc1ccc(O)cc1)[C@@H](C)O)[C@@H](C)O)[C@@H](C)CC)C(=O)N[C@@H](C)C(=O)N[C@@H](C)C(=O)N[C@@H](Cc1c[nH]cn1)C(=O)N[C@@H](CC(=O)O)C(=O)N[C@@H](Cc1ccccc1)C(=O)N[C@H](C(=O)N[C@@H](CCC(=O)O)C(=O)N[C@@H](Cc1c[nH]c2ccccc12)C(=O)N[C@@H](CC(C)C)C(=O)N[C@@H](CC(C)C)C(=O)N[C@@H](CO)C(=O)N[C@@H](C)C(=O)NCC(=O)N1CCC[C@H]1C(=O)N[C@@H](CO)C(=O)N[C@@H](CO)C(=O)NCC(=O)N[C@@H](C)C(=O)N1CCC[C@H]1C(=O)N1CCC[C@H]1C(=O)N1CCC[C@H]1C(=O)N[C@@H](CO)C(N)=O)C(C)C)C(=O)O [Compound 29] (HELM PEPTIDE1{Y.[Aib].Q.G.T.F.T.S.D.Y.S.I.Y.L.D.S.K.A.A.H.D.F.V.E.W.L.L.S.A.G.P.S.S.G.A.P.P.P.S.[am]}|PEPTIDE2{[CCCCCCCCCCCCCCCC(=O)[*:2]].[gGlu]}$PEPTIDE1,PEPTIDE2,17:R3-2:R2$$$V2.0)	0.064
CCCCCCCCCCCCCCCC(=O)N[C@@H](CCC(=O)NCCCC[C@H](NC(=O)[C@H](CCCCN)NC(=O)[C@H](CCC(=O)O)NC(=O)[C@H](CC(C)C)NC(=O)[C@H](Cc1ccc(O)cc1)NC(=O)[C@@H](NC(=O)[C@H](CO)NC(=O)[C@H](Cc1ccc(O)cc1)NC(=O)[C@H](CC(=O)O)NC(=O)[C@H](CO)NC(=O)[C@@H](NC(=O)[C@H](Cc1ccccc1)NC(=O)[C@@H](NC(=O)CNC(=O)[C@H](CCC(N)=O)NC(=O)C(C)(C)NC(=O)[C@@H](N)Cc1ccc(O)cc1)[C@@H](C)O)[C@@H](C)O)[C@@H](C)CC)C(=O)N[C@@H](C)C(=O)N[C@@H](C)C(=O)N[C@@H](CCCCN)C(=O)N[C@@H](CCC(=O)O)C(=O)N[C@@H](Cc1ccccc1)C(=O)N[C@H](C(=O)N[C@@H](CCC(=O)O)C(=O)N[C@@H](Cc1c[nH]c2ccccc12)C(=O)N[C@@H](CC(C)C)C(=O)N[C@@H](CC(C)C)C(=O)N[C@@H](CO)C(=O)N[C@@H](C)C(=O)NCC(=O)N1CCC[C@H]1C(=O)N[C@@H](CO)C(=O)N[C@@H](CO)C(=O)NCC(=O)N[C@@H](C)C(=O)N1CCC[C@H]1C(=O)N1CCC[C@H]1C(=O)N1CCC[C@H]1C(=O)N[C@@H](CO)C(N)=O)C(C)C)C(=O)O [Compound 32] (HELM PEPTIDE1{Y.[Aib].Q.G.T.F.T.S.D.Y.S.I.Y.L.E.K.K.A.A.K.E.F.V.E.W.L.L.S.A.G.P.S.S.G.A.P.P.P.S.[am]}|PEPTIDE2{[CCCCCCCCCCCCCCCC(=O)[*:2]].[gGlu]}$PEPTIDE1,PEPTIDE2,17:R3-2:R2$$$V2.0)	0.04
CCCCCCCCCCCCCCCC(=O)N[C@@H](CCC(=O)NCCCC[C@H](NC(=O)[C@H](CO)NC(=O)[C@H](CC(=O)O)NC(=O)[C@H](CC(C)C)NC(=O)[C@H](Cc1ccc(O)cc1)NC(=O)[C@@H](NC(=O)[C@H](CO)NC(=O)[C@H](Cc1ccc(O)cc1)NC(=O)[C@H](CC(=O)O)NC(=O)[C@H](CO)NC(=O)[C@@H](NC(=O)[C@H](Cc1ccccc1)NC(=O)[C@@H](NC(=O)CNC(=O)[C@H](CCC(N)=O)NC(=O)C(C)(C)NC(=O)[C@@H](N)Cc1ccc(O)cc1)[C@@H](C)O)[C@@H](C)O)[C@@H](C)CC)C(=O)N[C@@H](C)C(=O)N[C@@H](C)C(=O)N[C@@H](Cc1c[nH]cn1)C(=O)N[C@@H](CC(=O)O)C(=O)N[C@@H](Cc1ccccc1)C(=O)N[C@H](C(=O)N[C@@H](CCC(=O)O)C(=O)N[C@@H](Cc1c[nH]c2ccccc12)C(=O)N[C@@H](CC(C)C)C(=O)N[C@@H](CC(C)C)C(=O)N[C@@H](CCCNC(=N)N)C(=O)N[C@@H](C)C(N)=O)C(C)C)C(=O)O [Compound 27] (HELM PEPTIDE1{Y.[Aib].Q.G.T.F.T.S.D.Y.S.I.Y.L.D.S.K.A.A.H.D.F.V.E.W.L.L.R.A.[am]}|PEPTIDE2{[CCCCCCCCCCCCCCCC(=O)[*:2]].[gGlu]}$PEPTIDE1,PEPTIDE2,17:R3-2:R2$$$V2.0)	0.099
CCCCCCCCCCCCCCCC(=O)N[C@@H](CCC(=O)NCCCC[C@H](NC(=O)[C@H](CO)NC(=O)[C@H](Cc1ccc(O)cc1)NC(=O)[C@H](CC(=O)O)NC(=O)[C@H](CO)NC(=O)[C@@H](NC(=O)[C@H](Cc1ccccc1)NC(=O)[C@@H](NC(=O)CNC(=O)[C@H](CCC(N)=O)NC(=O)C(C)(C)NC(=O)[C@@H](N)Cc1ccc(O)cc1)[C@@H](C)O)[C@@H](C)O)C(=O)N[C@@H](Cc1ccc(O)cc1)C(=O)N[C@@H](CC(C)C)C(=O)N[C@@H](CCC(=O)O)C(=O)N[C@@H](CCCCN)C(=O)N[C@@H](CCCCN)C(=O)N[C@@H](C)C(=O)N[C@@H](C)C(=O)N[C@@H](CCCCN)C(=O)N[C@@H](CCC(=O)O)C(=O)N[C@@H](Cc1ccccc1)C(=O)N[C@H](C(=O)N[C@@H](CCC(=O)O)C(=O)N[C@@H](Cc1c[nH]c2ccccc12)C(=O)N[C@@H](CC(C)C)C(=O)N[C@@H](CC(C)C)C(=O)N[C@@H](CO)C(=O)N[C@@H](C)C(N)=O)C(C)C)C(=O)O [Compound 25] (HELM PEPTIDE1{Y.[Aib].Q.G.T.F.T.S.D.Y.S.K.Y.L.E.K.K.A.A.K.E.F.V.E.W.L.L.S.A.[am]}|PEPTIDE2{[CCCCCCCCCCCCCCCC(=O)[*:2]].[gGlu]}$PEPTIDE1,PEPTIDE2,12:R3-2:R2$$$V2.0)	0.19
